Residue numbers refer to the chain shown, from its start. Like-named read-outs stand apart in the source and are kept apart here.
How the values were obtained:
[1] = molecular target: T1, human M1 receptor (Homo sapiens, UniProt P11229); assay: Interaction with ACh in IP1 assay after phenoxybenzamine receptor depletion (Schild); format: cell-based
T1 construct: expressed in transfected cells
T1 sequence (P11229 1-460): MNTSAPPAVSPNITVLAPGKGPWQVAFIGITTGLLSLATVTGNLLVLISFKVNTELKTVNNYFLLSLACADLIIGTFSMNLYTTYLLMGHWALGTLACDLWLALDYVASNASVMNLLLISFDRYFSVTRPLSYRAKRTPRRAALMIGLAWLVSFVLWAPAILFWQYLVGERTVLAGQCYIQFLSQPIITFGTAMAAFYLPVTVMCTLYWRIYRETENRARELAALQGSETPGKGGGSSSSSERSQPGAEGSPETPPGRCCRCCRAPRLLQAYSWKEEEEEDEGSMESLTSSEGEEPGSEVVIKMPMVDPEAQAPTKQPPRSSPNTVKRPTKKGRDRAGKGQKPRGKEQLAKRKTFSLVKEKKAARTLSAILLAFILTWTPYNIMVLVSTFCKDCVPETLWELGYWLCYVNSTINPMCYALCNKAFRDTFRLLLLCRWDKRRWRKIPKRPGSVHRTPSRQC

[2] = tested on: rats; assay: Cardiovascular telemetry in rats; details: telemetered rats
[3] = Human plasma and CSF pharmacokinetics after single oral dose; format: in vivo; details: single 54 mg oral dose
[4] = molecular target: T1, human M1 receptor; assay: [3H]-NMS equilibrium radioligand binding, M1
Method: Non-specific binding (NSB) was determined in the presence of 1 μM atropine). Reactions were terminated by rapid filtration onto GF/B filter paper (Whatman, Maidstone, UK) and three washes with 3 mL ice-cold 0.9% NaCl using a Brandel harvester (M-24TI; Brandel, Fort Lauderdale, FL). Membrane bound radioactivity was determined by liquid scintillation (Ultima Gold; PerkinElmer) counting.
Data was analyzed using PRISM (GraphPad). For saturation binding, non-specific and total binding data were analyzed to a one site binding model. DPM was converted to fmol/mg to compare across constructs. […] […] The Cheng Prusoff equation was used to estimate pKi ([Cheng and Prusoff, 1973]).

[5] = molecular target: T2, M1-receptor (Gq/11 protein-coupling) in cortical membranes (Mus musculus, UniProt P12657); assay: [35S]-GTPγS binding / Gq/11 protein-coupling in mouse cortical membranes; format: biochemical
T2 construct: Wild-type or M1-KO mice ([Bradley et al., 2017]) (8-12 weeks) were humanely killed and cortical tissue was dissected on ice; from tissue; host or cells: mouse cortex membranes
T2 sequence (P12657 1-460): T1 sequence (P11229 1-460) with A5V, T254S, R320K, A337G, I413V
Method: Wild-type or M1-KO mice ([Bradley et al., 2017]) (8-12 weeks) were humanely killed and cortical tissue was dissected on ice. Tissue was suspended in ice-cold buffer A (containing 0.9% (w/v) NaCl, 10 mM HEPES, 0.2% (w/v) EDTA, pH 7.4) and homogenized (4 ×5s bursts) using a Polytron homogenizer. The suspension was centrifuged at 200 xg for 5 min at 4°C using an Eppendorf 5810R bench-top centrifuge. Supernatants were collected and re-homogenized as above. The suspension was subsequently centrifuged for 20 min at 40,000 xg at 4°C using a Beckman Coulter Avanti JXN-26 centrifuge with a JA-25.25 rotor. Supernatant was discarded, and the pellet was re-suspended in 10 mL ice-cold buffer B (10 mM HEPES, 10 mM EDTA, pH 7.4). The pellet was homogenized, GTP (1 mM final) was added and the suspension was incubated at 37° C for 15 min. The suspension was subsequently centrifuged for 20 min at 40,000 xg at 4°C and the pellet was re-suspended in 15 mL ice-cold buffer C (10 mM HEPES, 0.1 mM EDTA, pH 7.4) and re-homogenized as before. Suspension was centrifuged again for 20 min at 40,000 xg at 4°C. The final pellet was re-suspended in buffer C and protein concentration was estimated using a Bradford assay and this resuspended homogenate further diluted in buffer C to produce a concentration of 2 mg/mL. This preparation is the membrane preparation used in the [^35S]-GTPγS binding assay described below.
[^35S]-GTPγS binding and immunoprecipitation of Gα subunits was performed as previously described ([Bradley et al., 2017]). Specifically, wild-type or M1-KO membranes were diluted in assay buffer (in mM: HEPES, 10; NaCI, 100; MgCl2, 10; pH 7.4) containing a final concentration of 1 μM GDP. Membranes (75 μg in a total assay volume of […]) were added to [^35S]-GTPγS (1 μM final concentration) and agonists (CCh or CNO) and incubated at 30°C for 5 min. Reactions were terminated by the addition of 1 mL ice-cold assay buffer and immediate transfer to an ice bath. […] Recovered beads were then mixed with 1 mL FloScint-IV scintillation cocktail and counted by liquid scintillation spectrometry.

Structure (SMILES): CCOC(=O)N1CCC[C@H](N2CCC(C(=O)NC3(C)CCC3)CC2)CC1 [HTL9936, ethyl (S)-4-(4-((1-methylcyclobutyl)carbamoyl)piperidin-1-yl)azepane-1-carboxylate]
- Kb [1]: 6.31 µM
- Cardiovascular effects at 3 mg/kg ([2]; 3 mg/kg oral): No significant effects
- Heart rate and mean arterial blood pressure ([2]; oral 3, 10, 30 and 100 mg/kg, 5 h post-dose average): dose-dependent increase in heart rate and mean arterial blood pressure
- Tmax ([3]; CSF, read-out: Time of maximum concentration in CSF): 2 to 3 h
- Tmax ([3]; plasma, read-out: Plasma tmax): ~0.5 h
- Ki [4]: 20 µM
- EC50 [5]: 2.5 µM
- Gq/11 protein-coupling Emax ([5]; cortical membranes, wild-type mice, n = 3): 76 % of the oxotremorine-M response
- Gq/11 protein-coupling in M1-receptor KO membranes ([5]; membranes from M1-receptor KO animals): absent

— PMC7616177, “From structure to clinic: Design of a muscarinic M1 receptor agonist with the potential to treat Alzheimer’s disease” (Cell, 2021)
